Reference: ChEMBL document CHEMBL3880411, “Multikinase inhibitors for use in the treatment of cancer” (2009)
Active and inactive are the calls of the source. The rule behind the calls is not given here.

Tests used:
[1] = target: T1, Dual specificity mitogen-activated protein kinase kinase 1 (Homo sapiens, UniProt Q02750); assay: Competitive inhibition of MEK1 (unknown origin) using ERK2 as substrate after 40 mins by ELISA
[2] = target: Tyrosine-protein kinase ABL1 (Homo sapiens) (UniProt P00519); assay: Inhibition of human Abl assessed as remaining activity at 0.1 uM after 40 mins in presence of [gamma33P-ATP] by scintillation counting
[3] = target: Tyrosine-protein kinase ABL1 (Homo sapiens) (UniProt P00519); assay: Inhibition of human Abl assessed as remaining activity at 1 uM after 40 mins in presence of [gamma33P-ATP] by scintillation counting
[4] = target: Tyrosine-protein kinase Lck (Homo sapiens) (UniProt P06239); assay: Inhibition of human Lck assessed as remaining activity at 0.1 uM after 40 mins in presence of [gamma33P-ATP] by scintillation counting
[5] = target: Tyrosine-protein kinase Lck (Homo sapiens) (UniProt P06239); assay: Inhibition of human Lck assessed as remaining activity at 1 uM after 40 mins in presence of [gamma33P-ATP] by scintillation counting
[6] = target: T1, Dual specificity mitogen-activated protein kinase kinase 1; assay: Inhibition of human MEK1 assessed as remaining activity at 0.1 uM after 40 mins in presence of [gamma33P-ATP] by scintillation counting
[7] = target: T1, Dual specificity mitogen-activated protein kinase kinase 1; assay: Inhibition of human MEK1 assessed as remaining activity at 1 uM after 40 mins in presence of [gamma33P-ATP] by scintillation counting
[8] = target: Tyrosine-protein kinase Yes (Homo sapiens) (UniProt P07947); assay: Inhibition of human Yes assessed as remaining activity at 0.1 uM after 40 mins in presence of [gamma33P-ATP] by scintillation counting
[9] = target: Tyrosine-protein kinase Yes (Homo sapiens) (UniProt P07947); assay: Inhibition of human Yes assessed as remaining activity at 1 uM after 40 mins in presence of [gamma33P-ATP] by scintillation counting
[10] = Cytotoxicity against human AU565 cells assessed as reduction in cell viability after 96 hrs by CellTiter-Glo luminescence assay or methylene blue assay; type: functional, cell-based; settings: AU565, 96 h
[11] = Cytotoxicity against human MCF7 cells assessed as reduction in cell viability after 96 hrs by CellTiter-Glo luminescence assay or methylene blue assay; type: functional, cell-based; settings: MCF7, 96 h
[12] = Cytotoxicity against human MDA-MB-231 cells expressing K-ras G13D mutant assessed as reduction in cell viability after 96 hrs by CellTiter-Glo luminescence assay or methylene blue assay; type: functional, cell-based; settings: MDA-MB-231, 96 h
[13] = Cytotoxicity against human MDA-MB-435 cells expressing B-RAF V600E mutant assessed as reduction in cell viability after 96 hrs by CellTiter-Glo luminescence assay or methylene blue assay; type: functional, cell-based; settings: MDA-MB-435, 96 h
[14] = Cytotoxicity against human DU4475 cells expressing B-RAF V600E mutant assessed as reduction in cell viability after 96 hrs by CellTiter-Glo luminescence assay or methylene blue assay; type: functional, cell-based; settings: DU-4475, 96 h
[15] = Cytotoxicity against human DLD1 cells expressing K-ras G13D mutant assessed as reduction in cell viability after 96 hrs by CellTiter-Glo luminescence assay or methylene blue assay; type: functional, cell-based; settings: DLD-1, 96 h
[16] = Cytotoxicity against human SK-MEL-2 cells expressing N-ras Q61R mutant assessed as reduction in cell viability after 96 hrs by CellTiter-Glo luminescence assay or methylene blue assay; type: functional, cell-based; settings: SK-MEL-2, 96 h
[17] = Cytotoxicity against human SK-MEL-3 cells expressing B-RAF V600E mutant assessed as reduction in cell viability after 96 hrs by CellTiter-Glo luminescence assay or methylene blue assay; type: functional, cell-based; settings: SK-MEL3, 96 h
[18] = Cytotoxicity against human SK-MEL-24 cells expressing B-RAF V600E mutant assessed as reduction in cell viability after 96 hrs by CellTiter-Glo luminescence assay or methylene blue assay; type: functional, cell-based; settings: SK-MEL-24, 96 h
[19] = Cytotoxicity against human SK-MEL-31 cells expressing B-RAF V600E mutant assessed as reduction in cell viability after 96 hrs by CellTiter-Glo luminescence assay or methylene blue assay; type: functional, cell-based
[20] = Cytotoxicity against human LoVo cells expressing K-ras G13D mutant assessed as reduction in cell viability after 96 hrs by CellTiter-Glo luminescence assay or methylene blue assay; type: functional, cell-based
[21] = Cytotoxicity against human HCT116 cells expressing K-ras G13D mutant assessed as reduction in cell viability after 96 hrs by CellTiter-Glo luminescence assay or methylene blue assay; type: functional, cell-based; settings: HCT-116, 96 h
[22] = Cytotoxicity against human SW620 cells expressing K-ras G12V mutant assessed as reduction in cell viability after 96 hrs by CellTiter-Glo luminescence assay or methylene blue assay; type: functional, cell-based; settings: SW-620, 96 h
[23] = Cytotoxicity against human COLO205 cells expressing B-RAF V600E mutant assessed as reduction in cell viability after 96 hrs by CellTiter-Glo luminescence assay or methylene blue assay; type: functional, cell-based; settings: COLO 205, 96 h
[24] = Cytotoxicity against human HT-29 cells expressing B-RAF V600E mutant assessed as reduction in cell viability after 96 hrs by CellTiter-Glo luminescence assay or methylene blue assay; type: functional, cell-based; settings: HT-29, 96 h
[25] = Cytotoxicity against human MIAPaCa2 cells expressing K-ras G12C mutant assessed as reduction in cell viability after 96 hrs by CellTiter-Glo luminescence assay or methylene blue assay; type: functional, cell-based; settings: MIA PaCa-2, 96 h
[26] = Cytotoxicity against human PANC1 cells expressing K-ras G12D mutant assessed as reduction in cell viability after 96 hrs by CellTiter-Glo luminescence assay or methylene blue assay; type: functional, cell-based; settings: PANC-1, 96 h
[27] = Cytotoxicity against human BxPC3 cells assessed as reduction in cell viability after 96 hrs by CellTiter-Glo luminescence assay or methylene blue assay; type: functional, cell-based; settings: BXPC-3, 96 h
[28] = Cytotoxicity against human MES-SA cells assessed as reduction in cell viability after 96 hrs by CellTiter-Glo luminescence assay or methylene blue assay; type: functional, cell-based
[29] = Cytotoxicity against human MES-SA/Dx5-Rx1 cells assessed as reduction in cell viability after 96 hrs by CellTiter-Glo luminescence assay or methylene blue assay; type: functional, cell-based
[30] = Cytotoxicity against human IMR90 cells assessed as reduction in cell viability after 96 hrs by CellTiter-Glo luminescence assay or methylene blue assay; type: functional, cell-based; settings: IMR-90, 96 h
[31] = (§1) Antitumor activity against human LOX cells expressing B-RAF V600E mutant xenografted in athymic mouse assessed as tumor regression at 10 mg/kg, iv administered for two weekly rounds of five injections daily with two-day rest period between the rounds measured twice weekly from first day of treatment for 3 weeks; type: functional
[32] = as §1, with “20 to 40” for “10”, “treatment” for “treatment for 3 weeks”; type: functional
LOX = assay: Antitumor activity against human LOX cells expressing B-RAF V600E mutant xenografted in athymic mouse assessed as tumor regression at 10 to 40 mg/kg, iv administered for two weekly rounds of five injections daily with two-day rest period between the rounds measured at end of study; type: functional, organism-based
[33] = Antiproliferative activity against human HL60 cells after 96 hrs by MTT assay; type: functional, cell-based; settings: HL-60, 96 h
[34] = Antiproliferative activity against human THP1 cells after 96 hrs by MTT assay; type: functional, cell-based; settings: THP-1, 96 h
[35] = Antiproliferative activity against human K562 cells after 96 hrs by MTT assay; type: functional, cell-based; settings: K562, 96 h
[36] = Antiproliferative activity against human U266 cells after 96 hrs by MTT assay; type: functional, cell-based; settings: U-266, 96 h
[37] = Antiproliferative activity against human RPMI8226 cells after 96 hrs by MTT assay; type: functional, cell-based; settings: RPMI-8226, 96 h
[38] = Antiproliferative activity against human RL cells after 96 hrs by MTT assay; type: functional, cell-based
[39] = Antiproliferative activity against human NALM6 cells after 96 hrs by MTT assay; type: functional, cell-based; settings: NALM-6, 96 h
[40] = target: Nuclear factor NF-kappa-B complex (Homo sapiens) (UniProt Q00653+P19838+Q04206); assay: Inhibition of NFkappaB (unknown origin); type: protein-complex assay
Nuclear factor NF-kappa-B complex (Homo sapiens), sequence (P19838 whole entry, looked up): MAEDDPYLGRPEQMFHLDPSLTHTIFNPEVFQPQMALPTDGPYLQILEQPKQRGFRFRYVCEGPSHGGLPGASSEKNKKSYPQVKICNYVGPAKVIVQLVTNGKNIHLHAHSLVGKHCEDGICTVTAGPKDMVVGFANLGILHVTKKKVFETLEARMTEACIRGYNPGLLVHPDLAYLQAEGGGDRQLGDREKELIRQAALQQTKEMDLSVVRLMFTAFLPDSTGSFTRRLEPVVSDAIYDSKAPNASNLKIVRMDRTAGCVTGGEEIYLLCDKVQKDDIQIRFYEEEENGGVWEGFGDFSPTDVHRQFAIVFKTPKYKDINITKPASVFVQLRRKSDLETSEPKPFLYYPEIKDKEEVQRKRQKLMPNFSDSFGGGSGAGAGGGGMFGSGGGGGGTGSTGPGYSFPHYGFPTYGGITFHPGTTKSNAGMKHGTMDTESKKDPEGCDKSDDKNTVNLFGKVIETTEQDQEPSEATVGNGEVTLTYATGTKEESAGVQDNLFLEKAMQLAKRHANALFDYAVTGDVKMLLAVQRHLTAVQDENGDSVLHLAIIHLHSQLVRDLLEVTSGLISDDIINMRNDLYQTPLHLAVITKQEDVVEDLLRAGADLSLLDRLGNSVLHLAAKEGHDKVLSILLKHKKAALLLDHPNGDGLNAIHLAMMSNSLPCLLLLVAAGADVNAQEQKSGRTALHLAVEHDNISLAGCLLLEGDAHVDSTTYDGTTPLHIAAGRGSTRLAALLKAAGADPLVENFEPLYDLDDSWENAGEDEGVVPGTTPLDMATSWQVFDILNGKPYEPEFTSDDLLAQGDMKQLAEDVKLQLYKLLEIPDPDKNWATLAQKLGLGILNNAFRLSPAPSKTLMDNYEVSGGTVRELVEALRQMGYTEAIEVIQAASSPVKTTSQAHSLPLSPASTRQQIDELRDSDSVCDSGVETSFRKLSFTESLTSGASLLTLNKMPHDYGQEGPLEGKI
Nuclear factor NF-kappa-B complex (Homo sapiens), sequence (Q00653 whole entry, looked up): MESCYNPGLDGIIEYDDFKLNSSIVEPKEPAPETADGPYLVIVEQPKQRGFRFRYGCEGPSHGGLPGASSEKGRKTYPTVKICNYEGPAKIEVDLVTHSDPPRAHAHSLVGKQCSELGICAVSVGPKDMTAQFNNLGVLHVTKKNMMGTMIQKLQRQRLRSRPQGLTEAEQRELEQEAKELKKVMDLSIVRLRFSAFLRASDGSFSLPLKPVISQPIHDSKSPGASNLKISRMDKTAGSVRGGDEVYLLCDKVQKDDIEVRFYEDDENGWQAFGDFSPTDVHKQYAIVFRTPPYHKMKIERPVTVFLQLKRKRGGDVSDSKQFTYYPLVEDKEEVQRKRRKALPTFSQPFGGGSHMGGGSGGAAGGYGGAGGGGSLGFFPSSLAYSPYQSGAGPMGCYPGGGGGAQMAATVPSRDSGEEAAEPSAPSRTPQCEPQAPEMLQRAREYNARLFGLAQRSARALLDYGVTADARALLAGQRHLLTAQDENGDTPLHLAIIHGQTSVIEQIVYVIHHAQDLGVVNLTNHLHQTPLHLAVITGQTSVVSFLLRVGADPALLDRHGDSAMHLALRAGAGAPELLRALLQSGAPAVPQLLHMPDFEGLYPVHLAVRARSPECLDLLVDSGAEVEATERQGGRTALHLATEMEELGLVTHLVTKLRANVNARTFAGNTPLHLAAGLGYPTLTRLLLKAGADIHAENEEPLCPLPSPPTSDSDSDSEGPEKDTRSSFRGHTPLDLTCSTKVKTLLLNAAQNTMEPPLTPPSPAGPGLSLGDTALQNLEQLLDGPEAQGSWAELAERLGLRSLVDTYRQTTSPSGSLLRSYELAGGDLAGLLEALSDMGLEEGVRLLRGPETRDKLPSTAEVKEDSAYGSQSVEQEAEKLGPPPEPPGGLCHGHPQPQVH
Nuclear factor NF-kappa-B complex (Homo sapiens), sequence (Q04206 whole entry, looked up): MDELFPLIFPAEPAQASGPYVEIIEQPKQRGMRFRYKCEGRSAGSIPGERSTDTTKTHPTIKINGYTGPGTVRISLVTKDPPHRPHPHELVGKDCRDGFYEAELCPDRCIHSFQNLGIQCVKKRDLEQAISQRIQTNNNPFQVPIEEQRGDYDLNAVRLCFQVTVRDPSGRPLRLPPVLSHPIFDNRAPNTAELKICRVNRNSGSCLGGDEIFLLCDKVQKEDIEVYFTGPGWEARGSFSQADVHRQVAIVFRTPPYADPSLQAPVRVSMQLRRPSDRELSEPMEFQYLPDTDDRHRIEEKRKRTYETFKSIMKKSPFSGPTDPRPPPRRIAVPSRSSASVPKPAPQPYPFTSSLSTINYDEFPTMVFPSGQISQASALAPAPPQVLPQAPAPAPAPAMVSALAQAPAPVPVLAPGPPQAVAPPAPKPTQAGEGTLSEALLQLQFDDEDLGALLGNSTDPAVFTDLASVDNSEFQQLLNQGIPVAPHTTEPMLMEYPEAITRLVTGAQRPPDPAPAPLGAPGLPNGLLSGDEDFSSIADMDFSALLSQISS

T1 sequence (Q02750 whole entry): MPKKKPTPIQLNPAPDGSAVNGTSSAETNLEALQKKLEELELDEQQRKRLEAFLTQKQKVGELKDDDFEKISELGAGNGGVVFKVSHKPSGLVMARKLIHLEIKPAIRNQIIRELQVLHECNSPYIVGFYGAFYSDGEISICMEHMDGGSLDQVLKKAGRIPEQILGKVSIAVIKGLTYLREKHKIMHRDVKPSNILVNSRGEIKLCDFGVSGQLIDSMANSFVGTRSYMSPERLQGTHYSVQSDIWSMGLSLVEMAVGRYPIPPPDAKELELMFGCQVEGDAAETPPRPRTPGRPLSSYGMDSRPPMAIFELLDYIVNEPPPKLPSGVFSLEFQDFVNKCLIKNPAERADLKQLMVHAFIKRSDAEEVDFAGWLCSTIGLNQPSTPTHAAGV
Tyrosine-protein kinase Yes (Homo sapiens), sequence (P07947 2-543 limits assumed): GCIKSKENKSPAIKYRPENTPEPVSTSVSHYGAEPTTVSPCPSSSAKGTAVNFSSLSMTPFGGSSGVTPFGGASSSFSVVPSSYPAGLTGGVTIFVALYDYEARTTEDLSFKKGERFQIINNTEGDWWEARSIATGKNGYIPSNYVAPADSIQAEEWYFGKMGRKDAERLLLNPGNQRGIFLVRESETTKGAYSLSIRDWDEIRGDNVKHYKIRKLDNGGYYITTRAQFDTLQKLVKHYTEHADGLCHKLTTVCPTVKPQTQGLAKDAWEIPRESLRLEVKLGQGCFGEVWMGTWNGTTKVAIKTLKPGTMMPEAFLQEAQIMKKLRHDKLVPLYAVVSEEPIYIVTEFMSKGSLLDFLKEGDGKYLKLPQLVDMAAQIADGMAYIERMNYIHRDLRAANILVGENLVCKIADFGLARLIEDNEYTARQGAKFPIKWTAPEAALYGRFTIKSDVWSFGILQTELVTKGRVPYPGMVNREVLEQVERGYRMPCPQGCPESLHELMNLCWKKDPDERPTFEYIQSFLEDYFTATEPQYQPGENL
Tyrosine-protein kinase Lck (Homo sapiens), sequence (P06239 2-509 limits assumed): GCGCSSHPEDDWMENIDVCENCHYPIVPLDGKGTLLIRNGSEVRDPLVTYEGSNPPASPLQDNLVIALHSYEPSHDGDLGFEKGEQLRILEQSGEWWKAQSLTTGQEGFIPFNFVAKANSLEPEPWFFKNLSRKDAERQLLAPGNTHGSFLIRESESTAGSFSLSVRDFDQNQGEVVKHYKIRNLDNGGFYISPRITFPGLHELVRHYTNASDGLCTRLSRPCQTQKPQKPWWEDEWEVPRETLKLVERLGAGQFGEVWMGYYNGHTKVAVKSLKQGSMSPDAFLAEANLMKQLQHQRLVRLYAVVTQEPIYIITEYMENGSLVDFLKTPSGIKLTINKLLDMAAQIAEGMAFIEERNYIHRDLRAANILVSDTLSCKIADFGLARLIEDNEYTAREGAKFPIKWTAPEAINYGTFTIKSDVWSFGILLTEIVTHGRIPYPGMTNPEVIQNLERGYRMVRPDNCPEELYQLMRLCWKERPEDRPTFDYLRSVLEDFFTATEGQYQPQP
Tyrosine-protein kinase ABL1 (Homo sapiens), sequence (P00519 whole entry): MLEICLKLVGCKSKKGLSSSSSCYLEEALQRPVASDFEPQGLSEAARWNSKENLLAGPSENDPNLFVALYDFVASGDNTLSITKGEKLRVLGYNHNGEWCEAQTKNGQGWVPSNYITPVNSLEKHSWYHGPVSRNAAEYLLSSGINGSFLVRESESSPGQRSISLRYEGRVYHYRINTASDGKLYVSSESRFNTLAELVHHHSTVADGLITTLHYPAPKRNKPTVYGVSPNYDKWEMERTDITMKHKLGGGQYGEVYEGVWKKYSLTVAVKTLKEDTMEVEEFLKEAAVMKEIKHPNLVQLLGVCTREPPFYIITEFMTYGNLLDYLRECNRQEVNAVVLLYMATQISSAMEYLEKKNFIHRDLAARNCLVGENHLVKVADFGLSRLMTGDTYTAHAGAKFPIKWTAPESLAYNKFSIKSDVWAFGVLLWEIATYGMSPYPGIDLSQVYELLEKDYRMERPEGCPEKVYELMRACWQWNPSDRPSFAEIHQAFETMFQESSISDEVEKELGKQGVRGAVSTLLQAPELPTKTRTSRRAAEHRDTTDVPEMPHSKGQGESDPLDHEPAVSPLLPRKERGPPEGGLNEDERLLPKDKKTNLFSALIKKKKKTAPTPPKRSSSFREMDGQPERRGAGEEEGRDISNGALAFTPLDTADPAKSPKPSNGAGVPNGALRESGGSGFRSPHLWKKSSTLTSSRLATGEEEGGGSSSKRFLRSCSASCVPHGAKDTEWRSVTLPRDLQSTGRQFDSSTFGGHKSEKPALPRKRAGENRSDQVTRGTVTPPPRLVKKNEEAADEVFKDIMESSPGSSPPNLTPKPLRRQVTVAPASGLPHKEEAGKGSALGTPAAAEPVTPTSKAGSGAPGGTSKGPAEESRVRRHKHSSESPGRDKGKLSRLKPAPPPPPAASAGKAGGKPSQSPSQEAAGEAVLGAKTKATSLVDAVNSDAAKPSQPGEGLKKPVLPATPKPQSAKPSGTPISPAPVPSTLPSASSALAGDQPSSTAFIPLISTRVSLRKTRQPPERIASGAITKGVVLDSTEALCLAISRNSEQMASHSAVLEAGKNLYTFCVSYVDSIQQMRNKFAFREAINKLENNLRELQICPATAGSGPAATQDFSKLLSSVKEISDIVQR

inhibition [1]: Active | Activity [2]: 69% | Activity [3]: 22% | Activity [4]: 38% | Activity [5]: 3% | Activity [6]: 30% | Activity [7]: 4% | Activity [8]: 46% | Activity [9]: 7% | inhibition [40]: Active
Structure (SMILES): CNc1cc(O)c2c(c1)/C=C/C[C@H](O)[C@H](O)C(=O)/C=C\[C@@H](C)[C@H](C)OC2=O
IC50 [10]: > 10000 nM | IC50 [11]: > 10000 nM | IC50 [12]: 119 nM | IC50 [13]: 50 nM | IC50 [14]: 30 nM | IC50 [15]: 466 nM | IC50 [16]: 113 nM | IC50 [17]: 19 nM | IC50 [18]: 53 nM | IC50 [19]: 209 nM | IC50 [20]: 90 nM | IC50 [21]: 257 nM | IC50 [22]: 207 nM | IC50 [23]: 27 nM | IC50 [24]: 65 nM | IC50 [25]: 582 nM | IC50 [26]: > 10000 nM | IC50 [27]: 412 nM | IC50 [28]: 5780 nM | IC50 [29]: 908 nM | IC50 [30]: > 10000 nM | Activity [31]: 100% | Activity [32]: 100% | Activity (LOX): Active | IC50 [33]: 50 nM | IC50 [34]: 90 nM | IC50 [35]: 1430 nM | IC50 [36]: 1000 nM | IC50 [37]: > 4830 nM | IC50 [38]: 1620 nM | IC50 [39]: 650 nM
